Experimental data from article PMC9329436, “Optimization of the 4-anilinoquin(az)oline scaffold as epidermal growth factor receptor (EGFR) inhibitors for chordoma utilizing a toxicology profiling assay platform” (Scientific Reports, 2022).

Test system: HL60 cells
Assay: AsedaSciences SYSTEMETRIC Cell Health Screen (flow cytometry toxicity profiling)
Details: HL60, 4 h, 5 nM–100 µM; for CC: Cell Cycle score / CM: Cell morphology score / CMI: Cell membrane integrity score / MMP: Mitochondrial membrane depolarization score / ROS: Reactive superoxide species score / GSH: Glutathione score / NMI1: Nuclear membrane integrity 1 score / NMI2: Nuclear membrane integrity 2 score: probability 0–1, n = 2; for CHI: Cell Health Index: probability (0–1) of high-risk class, n = 2
Excerpt: To prioritize further optimization, in addition to cellular potency, we utilized the AsedaSciences® […]® Cell Health Screen. This live cell flow cytometry (FC) screen was developed to assess human safety risk for candidate pharmaceutical small molecules at the early hit-to-lead stage of development. The screen works by estimating the risk using a supervised machine learning (ML) classifier to assess a multiparametric cellular stress phenotype, produced by the test compound, relative to a training set of known compounds (Table S1). This screen has been designed for early pipeline risk estimation regardless of pharmaceutical class/disease type, so it uses HL60 as the reporter cell line.
The ML classifier was trained with 300 historically known compounds (on market or withdrawn drugs, research compounds, etc.), which were divided into two outcome classes based upon literature, clinical trials, and market histories where applicable. This external curation informed an outcome of “high-risk” or “low-risk”. All 300 compounds were also processed through the automated FC screen, populating each of the two classes with frequency distributions of empirical cell-based phenotypes.
To estimate human safety risk for an unknown compound, the ML classifier assesses the similarity of the test compound’s cell-based phenotype to the distributions of phenotypes in the two outcome classes. […] Phenotypes are derived from twelve FC detection parameters, including light scatter and a series of fluorescent physiological reporter dyes, that track cell stress-related endpoints.
To produce the Cell Health Index, the ML classifier uses all twelve FC parameters simultaneously in a multidimensional logistic regression model, so the CHI contains the most predictive power. In addition to the Cell Health Index, Table 4 also reports probability scores for eight cell stress-related endpoints. These scores are produced individually by passing information to the ML classifier relating to parameters that inform that endpoint. For example, to produce the cell morphology (CM) score, the ML classifier only uses the FC detection parameters for forward scatter (informing change in cell diameter) and side scatter (informing change in optical granularity of the cell) to inform the model. Together, these eight endpoints provide a “biological fingerprint”, allowing assessment of the degree to which SAR series members behave differently across endpoints.
In a 384-well platform, HL60 cells were exposed to a 10-step, 3 × dilution series of each test compound (5 nM–100 µM) for 4 h at 37 °C with 5% CO2. Each dilution series was screened in duplicate, occupying a total of 20 wells, allowing 16 test compounds to be assayed per plate. Each row contained one positive and one negative control well, for a total of 16 replicate positive/negative control pairs on each assay plate. Compound formatting, cell deposition, and dye application were performed robotically so that final assay conditions comprised 100,000 cells in a 40 µL volume. After the 4 h compound exposure, cells were immediately stained with a panel of fluorescent dyes that report physiological signatures of both mitochondrial dysfunction and gross cell stress. Fluorescence and forward/side-scatter data were collected using automated FC with no gating. FC data are processed by an automated algorithm for producing quality control measures and ML classification of compound phenotypes. • 2. HL60 cell culture production
HL60 cells were produced as suspension cultures in glass 850 cm^2 roller bottles with vented caps, at 1 RPM, 5% CO2, and 37 °C. […] Culture density was maintained at or below 1 × 10^6 cells/mL.

Row | SMILES | CC: Cell Cycle score | CM: Cell morphology score | CMI: Cell membrane integrity score | MMP: Mitochondrial membrane depolarization score | ROS: Reactive superoxide species score | GSH: Glutathione score | NMI1: Nuclear membrane integrity 1 score | NMI2: Nuclear membrane integrity 2 score | CHI: Cell Health Index
1 | CC(C)(C(=O)O)c1ccc(C(O)CCCN2CCC(C(O)(c3ccccc3)c3ccccc3)CC2)cc1 (stereo not drawn) [Fexofenadine, reference compound] | 0.020 | 0.00 | 0.040 | 0.020 | 0.16 |  |  |  | 
2 | NC(=O)c1ncn([C@@H]2O[C@H](CO)[C@@H](O)[C@H]2O)n1 [Ribavirin, reference compound] | 0.040 | 0.010 | 0.070 | 0.000 | 0.23 | 0.060 | 0.16 | 0.030 | 0.16
3 | COc1ccc2cc3[n+](cc2c1OC)CCc1cc2c(cc1-3)OCO2 [Berberine, reference compound] | 0.99 | 0.99 | 0.050 | 1.00 | 1.00 | 0.93 | 0.99 | 0.97 | 0.82
4 | CSc1ccc2c(c1)N(CCC1CCCCN1C)c1ccccc1S2 (stereo not drawn) [Thioridazine, reference compound] | 0.89 | 1.00 | 1.00 | 1.00 | 1.00 | 1.00 | 1.00 | 1.00 | 0.85
5 | Cc1ccc(-c2cc(C(F)(F)F)nn2-c2ccc(S(N)(=O)=O)cc2)cc1 [Celecoxib, reference compound] | 0.61 | 0.56 | 0.94 | 0.51 | 0.96 | 0.36 | 0.53 | 0.51 | 0.54
6 | CC(CN1c2ccccc2Sc2ccccc21)N(C)C (stereo not drawn) [Promethazine, reference compound] | 0.46 | 1.00 | 0.98 | 0.97 | 0.98 | 0.96 | 0.84 | 0.94 | 0.71
7 | CC(C)NCC(O)COc1cccc2ccccc12 (stereo not drawn) [Propranolol, reference compound] | 0.24 | 0.060 | 0.20 | 0.010 | 0.18 | 0.11 | 0.69 | 0.23 | 
8 | CN1CCN(CCCN2c3ccccc3Sc3ccc(Cl)cc32)CC1 [Prochlorperazine, reference compound] | 0.96 | 1.00 | 1.00 | 1.00 | 1.00 | 1.00 | 1.00 | 0.99 | 
9 | C=C(C)[C@H]1Cc2c(ccc3c2O[C@@H]2COc4cc(OC)c(OC)cc4[C@@H]2C3=O)O1 [Rotenone, reference compound] | 0.70 | 0.93 | 0.83 | 0.99 | 0.94 | 0.79 | 0.54 | 0.76 | 
10 | CCc1nn(CCCN2CCN(c3cccc(Cl)c3)CC2)c(=O)n1CCOc1ccccc1 [Nefazodone, reference compound] | 0.97 | 0.97 | 1.00 | 1.00 | 1.00 | 0.99 | 0.73 | 0.87 | 0.78
11 | Cc1ccc(N(CC2=NCCN2)c2cccc(O)c2)cc1 [Phentolamine, reference compound] | 0.040 | 0.00 | 0.16 | 0.29 | 0.11 | 0.17 | 0.64 | 0.79 | 
12 | CC(c1cc2ccccc2s1)N(O)C(N)=O (stereo not drawn) [Zileuton, reference compound] | 0.11 | 0.020 | 0.010 | 0.060 | 0.070 | 0.020 | 0.17 | 0.080 | 0.19
13 | CCC(C)(C)C(=O)O[C@H]1C[C@@H](C)C=C2C=C[C@H](C)[C@H](CC[C@@H]3C[C@@H](O)CC(=O)O3)[C@H]21 [Simvastatin, reference compound] | 0.12 | 0.030 | 0.080 | 0.060 | 0.11 | 0.41 | 0.29 | 0.10 | 
14 | Cc1ccc(=O)n(-c2ccccc2)c1 [Pirfenidone, reference compound] | 0.060 | 0.00 | 0.090 | 0.010 | 0.020 | 0.040 | 0.040 | 0.030 | 0.17
15 | COc1ccc(/C=C/C(=O)Nc2ccccc2C(=O)O)cc1OC [Tranilast, reference compound] | 0.10 | 0.020 | 0.13 | 0.17 | 0.12 | 0.030 | 0.73 | 0.30 | 0.32
16 | CC(C)(C)c1ccc(C(O)CCCN2CCC(C(O)(c3ccccc3)c3ccccc3)CC2)cc1 (stereo not drawn) [Terfenadine, reference compound] | 0.98 | 1.00 | 1.00 | 1.00 | 1.00 | 1.00 |  |  | 
